Laboratory results as given in patent publication EP1053246B1, “BETA-SHEET MIMETICS AND METHODS RELATING TO THE USE THEREOF” (MOLECUMETICS, LTD., priority 1998, dated 1999).
One block for each compound: values may come before it.

Legend:
Plasmin [1] = molecular target: T1, Plasmin (Bos taurus, UniProt P06868); assay: plasmin inhibition assay (IC50, Example 4); type: biochemical; design: Plasmin: Buffer (see thrombin assay); details: footnote d: IC50
Method: (§1) All inhibition assays of this experiment were performed at room temperature in 96 well microplates using a Bio-Rad microplate reader (Model 3550). […] This solution (2.05 mM) served as the stock solution for all the inhibition assays. The hydrolysis of chromogenic substrates was monitored at 405 nm. The reaction progress curves were recorded by reading the plates typically 90 times with 30 seconds to 2 minute intervals. The initial rate were determined by unweighted nonlinear least-squares fitting to a first order reaction in GraFit.
For dilutions of structure (13b) (see urokinase assay).

[2] = molecular target: Tissue Plasminogen Activator (t-PA) (Homo sapiens, UniProt P00750); assay: t-PA inhibition assay (IC50, Example 4); type: biochemical; details: footnote d: IC50
Tissue Plasminogen Activator (t-PA), sequence (P00750 36-562): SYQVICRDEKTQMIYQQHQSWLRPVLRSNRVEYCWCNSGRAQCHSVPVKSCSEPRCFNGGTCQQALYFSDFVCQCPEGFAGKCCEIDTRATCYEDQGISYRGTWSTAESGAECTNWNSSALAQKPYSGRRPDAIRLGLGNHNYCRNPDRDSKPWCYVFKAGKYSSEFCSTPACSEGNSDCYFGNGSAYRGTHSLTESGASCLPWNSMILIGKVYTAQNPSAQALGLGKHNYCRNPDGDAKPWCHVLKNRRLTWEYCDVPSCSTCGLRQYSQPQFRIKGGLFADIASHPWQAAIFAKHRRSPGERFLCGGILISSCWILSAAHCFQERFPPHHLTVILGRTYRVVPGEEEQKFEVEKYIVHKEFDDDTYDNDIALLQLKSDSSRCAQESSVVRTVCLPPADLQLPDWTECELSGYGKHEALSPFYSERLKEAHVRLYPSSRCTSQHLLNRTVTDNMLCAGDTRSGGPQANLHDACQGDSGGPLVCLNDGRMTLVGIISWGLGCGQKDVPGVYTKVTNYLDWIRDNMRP
Method: as §1

urokinase [3] = molecular target: T2, urokinase (Homo sapiens, UniProt P00749); assay: urokinase inhibition assay (IC50, Example 4); type: biochemical; design: purchased Sigma; details: footnote d: IC50
Method: as §1
In the urokinase assay, buffer was pH 8.8 0.05 M Tris and 0.05 M NaCl in deionized water. S-2444 (from Sigma), pyroGlu-Gly-Arg-pNA at 0.5 mM in water was utilized as substrate. The same dilution procedure was used as for Factor VII and Factor X. Assay protocol is the same as for thrombin except 18.5 nM of human urokinase (from Sigma) was utilized.

[4] = molecular target: Activated Protein C (aPC) (Homo sapiens, UniProt P04070); assay: activated protein C inhibition assay (IC50, Example 4); type: biochemical; details: footnote d: IC50
Activated Protein C (aPC), sequence (P04070 43-197 limits assumed): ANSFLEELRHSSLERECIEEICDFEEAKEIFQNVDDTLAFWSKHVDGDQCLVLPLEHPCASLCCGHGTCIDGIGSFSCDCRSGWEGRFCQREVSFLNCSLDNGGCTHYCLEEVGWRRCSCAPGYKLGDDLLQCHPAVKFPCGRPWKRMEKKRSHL
Activated Protein C (aPC), sequence (P04070 212-461 limits assumed): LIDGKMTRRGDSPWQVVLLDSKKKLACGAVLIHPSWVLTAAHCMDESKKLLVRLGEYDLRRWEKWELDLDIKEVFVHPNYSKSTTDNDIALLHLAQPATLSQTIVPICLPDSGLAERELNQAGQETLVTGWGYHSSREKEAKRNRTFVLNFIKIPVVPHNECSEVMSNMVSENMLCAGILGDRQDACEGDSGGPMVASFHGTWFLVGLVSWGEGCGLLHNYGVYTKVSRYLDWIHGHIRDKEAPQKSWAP
Method: as §1
Activated Protein C (aPC): Buffer was the same as used in thrombin assay. […] Dilutions of structure (13b) were the same as in urokinase assay.

thrombin [5] = molecular target: T3, thrombin (Bos taurus, UniProt P00735); assay: thrombin inhibition assay (IC50, Example 4); type: biochemical, bovine; details: footnote d: IC50
bovine trypsin = molecular target: T4, bovine trypsin (Bos taurus, UniProt P00760); assay: trypsin inhibition assay (IC50, Example 4); type: biochemical; details: footnote d: IC50
T4 construct: purchased Sigma
T4 sequence (P00760 24-246): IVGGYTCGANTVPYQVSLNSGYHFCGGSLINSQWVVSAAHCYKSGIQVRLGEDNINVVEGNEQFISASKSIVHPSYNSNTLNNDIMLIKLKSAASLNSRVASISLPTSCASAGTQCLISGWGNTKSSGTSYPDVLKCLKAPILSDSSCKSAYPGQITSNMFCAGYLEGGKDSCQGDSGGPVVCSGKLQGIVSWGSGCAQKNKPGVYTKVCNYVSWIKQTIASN
Method: as §1
In the trypsin assay, pH 7.8 Tris (0.10 M Tris and 0.02 M CaCl2) was utilized as the buffer. BAPNA (from Sigma) was used at 1 mg/ml in 1% DMSO (v/v) deionized water solution as substrate. The same dilutions of structure (13b) were made as for Factor VII assay.

FVIIa and TF complex = molecular target: T5, FVIIa and TF complex (Homo sapiens, UniProt P08709); assay: Factor VII inhibition assay (IC50, Example 4); type: biochemical; details: footnote d: IC50
T5 construct: 50 µl of 16 nM FVIIa and TF complex solution
T5 sequence (P13726 33-295 partner, one chain of several): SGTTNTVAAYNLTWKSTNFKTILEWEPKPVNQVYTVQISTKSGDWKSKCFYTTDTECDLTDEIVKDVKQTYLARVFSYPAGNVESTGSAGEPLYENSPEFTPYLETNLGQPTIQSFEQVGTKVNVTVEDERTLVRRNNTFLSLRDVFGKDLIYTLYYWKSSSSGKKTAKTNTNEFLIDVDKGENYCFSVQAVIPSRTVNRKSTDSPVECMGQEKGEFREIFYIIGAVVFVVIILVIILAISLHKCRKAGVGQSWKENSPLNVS
Method: as §1
In the Factor VII assay, S-2288 (from Pharmacia), D-Ile-Pro-Arg-pNA was used at […] in deionized water as substrate. […] This dilution served as the first point of the inhibitor (20 µM). From this concentration point 6 more sequential dilutions were made with a dilution factor of 2. 50 µl of 16 nM FVIIa and TF complex solution and 40 µl of the inhibitor solutions were added into each well, the mixtures were incubated for 20 minutes before 10 µl of 20 mM S-2288 was added.

bovine factor Xa = molecular target: T6, bovine factor Xa (Bos taurus, UniProt P00743); assay: Factor X inhibition assay (IC50, Example 4); type: biochemical; details: footnote d: IC50; footnote e: bovine plasma; read-out: IC50 Factor X
T6 construct: bovine factor Xa (from Sigma); purchased Sigma
T6 sequence (P00743 41-180 limits assumed): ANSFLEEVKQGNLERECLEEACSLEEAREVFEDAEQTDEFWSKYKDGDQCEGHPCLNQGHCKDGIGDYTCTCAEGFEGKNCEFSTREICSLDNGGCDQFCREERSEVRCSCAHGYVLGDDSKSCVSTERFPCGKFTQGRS
T6 sequence (P00743 234-492 limits assumed): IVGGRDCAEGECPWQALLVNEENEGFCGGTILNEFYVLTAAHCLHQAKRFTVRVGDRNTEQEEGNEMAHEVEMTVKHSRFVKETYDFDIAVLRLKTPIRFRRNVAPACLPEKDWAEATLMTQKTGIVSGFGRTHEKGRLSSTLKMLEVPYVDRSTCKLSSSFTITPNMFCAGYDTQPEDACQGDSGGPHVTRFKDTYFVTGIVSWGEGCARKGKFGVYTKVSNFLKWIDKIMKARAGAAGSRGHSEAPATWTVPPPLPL
Method: as §1
In the Factor X assay, buffer and substrate are the same as used for thrombin assay. A 1:100 dilution was made into pH 8.4 Tris buffer to serve as the first point. Seven dilutions with a dilution factor of 2 were made. The assay protocol is the same as for thrombin except 25 nM of bovine factor Xa (from Sigma) in pH 8.4 Tris buffer was used instead of thrombin.

factor VII = molecular target: T7, factor VII (Homo sapiens, UniProt P08709); assay: Factor VII inhibition assay (Ki, Example 5); type: biochemical; details: read-out: Ki (M) Factor VII
T7 construct: human Factor VIIa (FVIIa)
T7 sequence (P08709 61-212 limits assumed): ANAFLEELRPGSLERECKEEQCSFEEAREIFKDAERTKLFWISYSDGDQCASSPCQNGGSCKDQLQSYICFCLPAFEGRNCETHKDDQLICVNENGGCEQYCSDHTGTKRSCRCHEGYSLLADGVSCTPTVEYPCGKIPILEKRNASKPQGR
T7 sequence (P08709 213-466 limits assumed): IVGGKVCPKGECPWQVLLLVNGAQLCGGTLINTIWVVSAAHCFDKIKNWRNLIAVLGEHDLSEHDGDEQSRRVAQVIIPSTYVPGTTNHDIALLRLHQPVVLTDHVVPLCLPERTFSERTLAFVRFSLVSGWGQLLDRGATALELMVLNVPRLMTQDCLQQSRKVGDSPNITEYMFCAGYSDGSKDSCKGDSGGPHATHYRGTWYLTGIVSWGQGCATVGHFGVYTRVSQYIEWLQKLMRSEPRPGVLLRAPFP
Method: (§2) The reaction progress curves were recorded by reading the plates, typically 60 times with 30 second to 2 minute intervals. Initial rates were determined by unweighted nonlinear least-squares fitting to a first order reaction in GraFit (Erithacus Software Limited, London, England).
From this concentration point seven more sequential dilutions were made for the assay.

urokinase [6] = molecular target: T2, urokinase; assay: urokinase inhibition assay (Ki, Example 5); type: biochemical, human kidney; design: from tissue; host or cells: human kidney
t-PA = t-PA (Homo sapiens, UniProt P00750); assay: t-PA inhibition assay (Ki, Example 5); type: biochemical; details: tissue Plasminogen Activator; read-out: Ki (M) tPA
t-PA, sequence (P00750 36-562): as the sequence (P00750 36-562) above
Method: as §2

Plasmin [7] = molecular target: T1, Plasmin; assay: plasmin inhibition assay (Ki, Example 5); type: biochemical, bovine plasma; design: Plasmin: Buffer (see thrombin assay); from tissue; host or cells: bovine plasma; details: read-out: Ki (M) Plasmin
Method: as §2

Factor XI = Factor XI (Homo sapiens, UniProt P03951); assay: Factor XI inhibition assay (Ki); type: biochemical; details: read-out: Ki (M) Factor XI
Factor XI, sequence (P03951 388-625 limits assumed): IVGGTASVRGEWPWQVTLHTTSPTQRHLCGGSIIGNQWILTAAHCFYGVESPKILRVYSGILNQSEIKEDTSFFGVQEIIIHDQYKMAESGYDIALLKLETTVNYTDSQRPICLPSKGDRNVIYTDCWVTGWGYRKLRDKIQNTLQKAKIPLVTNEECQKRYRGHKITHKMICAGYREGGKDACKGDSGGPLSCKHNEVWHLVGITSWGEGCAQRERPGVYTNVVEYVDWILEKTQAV
Factor XI, sequence (P03951 19-387 limits assumed): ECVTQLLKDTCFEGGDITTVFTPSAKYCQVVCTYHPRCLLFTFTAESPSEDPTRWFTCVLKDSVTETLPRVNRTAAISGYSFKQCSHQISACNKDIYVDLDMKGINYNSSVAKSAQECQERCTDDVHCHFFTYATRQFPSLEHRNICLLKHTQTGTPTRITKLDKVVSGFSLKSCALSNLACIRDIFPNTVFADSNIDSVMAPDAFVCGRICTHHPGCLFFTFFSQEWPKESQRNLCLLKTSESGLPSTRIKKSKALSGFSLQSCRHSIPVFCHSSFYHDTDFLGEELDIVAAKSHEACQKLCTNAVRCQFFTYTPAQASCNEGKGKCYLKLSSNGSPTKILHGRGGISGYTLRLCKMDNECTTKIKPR

thrombin [8] = molecular target: T3, thrombin; assay: thrombin inhibition of solid phase synthesized mimetics; type: biochemical; details: assayed as mixtures of diastereomers; read-out: Ki as thrombin inhibitors (asterisk at compound number)
Method: General Procedure: The synthesis of β-strand mimetics was initiated by deprotection of Fmoc PAL resin using 25% piperidine in DMF. Following extensive washing with DMF, the resin was treated with the acid fluoride of N-Fmoc-4-aminomethylbenzoic acid, or (81), or (86) and Hunigs' base in DMF until the Kaiser test was negative. Alternatively, the Fmoc-protected thiazole- (75) or imidazole-based (77) linkers were coupled to the resin using BOP, HOBt and DIEA. In some instances Fmoc-Leu or another amino acid was attached to the resin prior to the thiazole- (75) or imidazole-based (77) linkers via the same methodology. […] Deprotection of all Fmoc-protected linkers was effected by treatment with 25% piperidine in DMF, and deprotection the Boc-protected linker (77) was effected by TMS-Cl (1 M) and phenol (3 M) in dichloromethane for 30 min. The lysinol derivative (90) was coupled to resin-bound linkers N-Fmoc-4-aminomethylbenzoic acid, (81), or (86) using PyBOP, HOBt and Hunigs' base in DMF until a negative Kaiser test was achieved. Treatment of the resin with 25% piperidine in DMF then cleaved the FMOC group. Following washing with DMF a dienoic acid was coupled to the resin-bound linkers using PyBOP, HOBt and Hunigs' base in DMF until the result of a Kaiser test was negative. […]

T1 sequence (P06868 104-583 limits assumed): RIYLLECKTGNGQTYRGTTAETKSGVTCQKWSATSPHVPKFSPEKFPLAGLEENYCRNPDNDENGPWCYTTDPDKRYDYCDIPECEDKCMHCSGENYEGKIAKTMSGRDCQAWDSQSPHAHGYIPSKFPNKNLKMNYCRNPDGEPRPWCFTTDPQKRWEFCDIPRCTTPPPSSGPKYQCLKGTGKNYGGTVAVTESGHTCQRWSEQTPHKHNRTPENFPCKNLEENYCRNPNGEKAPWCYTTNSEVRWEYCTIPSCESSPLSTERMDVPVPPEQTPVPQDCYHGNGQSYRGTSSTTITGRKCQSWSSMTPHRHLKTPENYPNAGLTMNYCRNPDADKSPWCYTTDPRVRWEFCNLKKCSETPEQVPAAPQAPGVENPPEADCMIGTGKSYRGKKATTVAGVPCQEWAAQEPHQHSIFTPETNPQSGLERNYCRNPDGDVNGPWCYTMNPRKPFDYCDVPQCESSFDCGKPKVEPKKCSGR
T1 sequence (P06868 584-812 limits assumed): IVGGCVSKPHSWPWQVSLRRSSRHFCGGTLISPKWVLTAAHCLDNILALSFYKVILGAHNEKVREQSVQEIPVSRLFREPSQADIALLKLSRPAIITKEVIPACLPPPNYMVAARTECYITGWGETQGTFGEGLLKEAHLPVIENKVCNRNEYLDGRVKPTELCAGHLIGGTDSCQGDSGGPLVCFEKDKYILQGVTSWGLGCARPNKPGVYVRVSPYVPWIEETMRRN

IC50 (Plasmin [1]): 978 nM
IC50 [2]: 632 nM
IC50 (urokinase [3]): 927 nM
IC50 [4]: 528 nM
IC50 (thrombin [5]): 1.2 nM
IC50 (bovine trypsin): 160 nM
IC50 (FVIIa and TF complex): 140 nM
IC50 (bovine factor Xa): 386 nM
Structure (SMILES): N=C(N)NCCC[C@H](NC(=O)[C@@H]1CCN2CC[C@@](N)(Cc3ccccc3)C(=O)N12)C(=O)CCl [Structure (13b)]

Ki (factor VII): 2.7e-07 M
Ki (urokinase [6]): 600 nM
Ki (t-PA): 4.95e-07 M
Ki (Plasmin [7]): 4.15e-07 M
Ki (Factor XI): 2.7e-08 M
Structure (SMILES): N=C(N)NCCCC(NC(=O)C1CCN2CCC(N)(Cc3ccccc3)C(=O)N12)C(=O)c1nc2ccccc2s1 (centres unmarked) [Structure (20b)]

Ki (thrombin [8]): < 10 nM
Structure (SMILES): CC/C=C\CCC1C=CC(C(=O)NC(CCCCN)C(=O)C(=O)NCCc2ccc(C(N)=O)cc2)n2c(=O)n(CC(c3ccccc3)c3ccccc3)c(=O)n21 (centres unmarked) [compound 106]
